From patent publication US20130253022A1 (FOX CHASE CHEMICAL DIVERSITY CENTER, INC., priority 2010, published 2013) come the findings set out here.

In assay [1] the test system is Hippocampal Cultures. The assay can be described thus: Neuroprotection from heavy metal toxicity, CFDA assay. Particulars: for EC50: Rattus norvegicus. It is filed as cell-based, rat. From the text:
All compounds were screened with dissociated hippocampal cultures derived from embryonic day 18 rats as the primary test system. With this preparation, primary neurons were used to test for prevention of heavy metal toxicity by the disclosed compounds. In brief, hippocampal tissue was obtained commercially through Brain Bits (Springfield, Ill.) and cultures prepared as previously described (Brewer, G. J. Serum-free B27/neurobasal medium supports differentiated growth of neurons from the striatum, substantia nigra, septum, cerebral cortex, cerebellum and dentate gyms, J. Neurosci. Res., 1995, 42, 674-683). The hippocampal neurons were platted at low density (10,000 cell/well) in a 96-well format and maintained in serum-free medium consisting of Neurobasal Medium supplemented with B27 and GlutaMAX (Gibco). Pre-coated poly-L-lysine coated plates are used because of the preferential adherence and survival of hippocampal neurons on this matrix support. Heavy metal toxicity is associated with the occurrence of seizures ([…] et al. Zinc and copper: pharmacological probes and endogenous modulators of neuronal excitability. Pharmacol. Ther. 2006, 111, 567-583). Therefore, the heavy metal toxicity studies serve as another example of the oxidative stress that the disclosed compounds have a protection action against. To establish the dose-dependency of test agents, day 18 hippocampal cultures were utilized to study the toxicity produced after treatment with the heavy metals and neuroprotection after treatment with test compounds. Serving as examples of heavy metal salts for these studies are the following: […] Prior to treatment, the B27/Neural Basal media of the cultures were replaced with B27 neural basal medium without antioxidants for 18 hours. […] Further, the removal of antioxidants in the medium was performed to obtain a significant and reproducible toxic signal for heavy metal treatment of the hippocampal neurons. Toxicity produced by heavy metals is measured by decreases in neuronal viability. Carboxyfluorescein (CFDA) was used a vital stain for all cell toxicity and neuroprotection studies. With the use of the CytoFluor fluorimeter, the CFDA assay was employed to assess the viability of neurons. CFDA is a dye that becomes fluorescent upon cell entry and cleavage by cytosolic esterases (Petroski and Geller. Selective labeling of embryonic neurons cultures on astrocyte monolayers with 5(6)-carboxyfluorescein diacetate [CFDA]. J. Neurosci. Methods 1994, 52, 23-32). Neuronal specificity is obtained relative to astrocytes because the cleaved dye is extruded extracellularlly by glia with time, while dye in neurons remains intracellular. Dose responses to the various heavy metal salts determined the minimal concentration that produced the maximum amount of toxicity. […] All test compounds are dissolved to 10 mM in Dulbecco's phosphate buffered saline (DPBS; Sigma: D-5780) prior to testing. To test for neuroprotection from a heavy metal toxicity, day 11 hippocampal cultures are given a complete change of medium containing 100 μl of Neurobasal medium with B27 that contain no antioxidants. Twenty-four hours after the change in medium, the heavy metal neuroprotection studies are started. […] At the conclusion of the 4 hour incubation period, the dye is removed from the cultures and washed once with 100 μl of DPBS. After removal of the first wash, a second wash of DPBS is added to the culture and then incubated for 30 min to allow the efflux of dye out of glia in the cultures. At the conclusion of the 30 min efflux period, the culture efflux medium is removed and 100 μl of 0.1% triton-X100 in water is added to the cultures before reading at Ex490/Em517 in a CytoFluor fluorimeter. Results are expressed in relative fluorescent units (RFU) and EC50's calculated from the dose response of the test compound.

Assay [2] has as its system Hippocampal Cultures. Nature of the assay: Neuroprotection from heavy metal toxicity, propidium iodide assay. It is filed as cell-based. Particulars: Rattus norvegicus, read-out: Neuroprotection EC50 PI. From the text:
All compounds were screened with dissociated hippocampal cultures derived from embryonic day 18 rats as the primary test system. With this preparation, primary neurons were used to test for prevention of heavy metal toxicity by the disclosed compounds. In brief, hippocampal tissue was obtained commercially through Brain Bits (Springfield, Ill.) and cultures prepared as previously described (Brewer, G. J. Serum-free B27/neurobasal medium supports differentiated growth of neurons from the striatum, substantia nigra, septum, cerebral cortex, cerebellum and dentate gyms, J. Neurosci. Res., 1995, 42, 674-683). The hippocampal neurons were platted at low density (10,000 cell/well) in a 96-well format and maintained in serum-free medium consisting of Neurobasal Medium supplemented with B27 and GlutaMAX (Gibco). Pre-coated poly-L-lysine coated plates are used because of the preferential adherence and survival of hippocampal neurons on this matrix support. Heavy metal toxicity is associated with the occurrence of seizures ([…] et al. Zinc and copper: pharmacological probes and endogenous modulators of neuronal excitability. Pharmacol. Ther. 2006, 111, 567-583). Therefore, the heavy metal toxicity studies serve as another example of the oxidative stress that the disclosed compounds have a protection action against. To establish the dose-dependency of test agents, day 18 hippocampal cultures were utilized to study the toxicity produced after treatment with the heavy metals and neuroprotection after treatment with test compounds. Serving as examples of heavy metal salts for these studies are the following: […] Prior to treatment, the B27/Neural Basal media of the cultures were replaced with B27 neural basal medium without antioxidants for 18 hours. […] Further, the removal of antioxidants in the medium was performed to obtain a significant and reproducible toxic signal for heavy metal treatment of the hippocampal neurons. At the conclusion of the 4 hour test period, the cultures are also tested for the amount of cell death as measured by the propidium iodide method. […] After removal of the growth medium, 50 μl of the 50 μM PI solution is added to cultures and allowed to incubate in the dark at room temperature for 15 min. The cultures are then assessed for fluorescence intensity at Ex536/Em590 nm in a CytoFluor fluorimeter. Results are expressed in relative fluorescent units. […] The test compound is added to the hippocampal cultures at concentrations that range from […] to […]. The incubation period is for four hours followed by the measurement of fluorescence at Ex536/Em590 nm in a CytoFluor fluorimeter. Results are expressed in relative fluorescent units. Background fluorescence was subtracted from values obtained from wells without cells.

Setting [3] is: Cobalt Chloride hexahydrate 10 μM.
Where [4] appears, read: Copper Acetate monohydrate 10 μM.
Where [5] appears, read: Nickel Chloride hexahydrate 10 μM.

What is called EC50 is the concentration that produces a half-maximal response. With `NS(=O)(=O)NCC(F)(F)c1ccccc1F` [Example 1, 2,2-Difluoro-2-(2-fluorophenyl)-ethyl-1-sulfamide], the EC50 in the assay with Hippocampal Cultures [1] (setting [3]) was 100000 pM; with Hippocampal Cultures [1] (setting [4]) it was 100 pM; in the assay on Hippocampal Cultures [1] (Iron sulfate hexahydrate 10 μM) it was 1000 pM; in the assay on Hippocampal Cultures [1] (setting [5]), 10000 pM; in the assay with Hippocampal Cultures [1] (Zinc Acetate dehydrate 1 μM) it was 100 pM; in the assay with Hippocampal Cultures [2] (setting [3]), 100 pM. Moreover, the EC50 stood at 100 pM with Hippocampal Cultures [2] (setting [4]), 10 pM in the assay with Hippocampal Cultures [2] (Iron sulfate hexahydrate 10 μM), 100 pM in the assay with Hippocampal Cultures [2] (setting [5]) and 10 pM with Hippocampal Cultures [2] (Zinc Acetate dehydrate 1 μM). For the same molecule, the “Prevention of toxicity of 5 heavy metals” value in the assay on Hippocampal Cultures [1] (five heavy metal salts at the Table 3 concentrations, CFDA and PI assays) was “prevented the toxicity of 5 heavy metals”.
